The NIST ThermoML archive (doi:10.1016/j.fluid.2018.08.017)

Columns and labels:
[1] = refractive index (Na D-line) (dimensionless); details: 101.33 kPa, Liquid, Standard Abbe refractometry
[2] = Liquid; for mass density: Vibrating tube method; for speed of sound: Single path-length method
[3] = wn = mass fraction of the nth substance listed; details: 101 kPa, Liquid, w1 = 1; for speed of sound: Single path-length method; for mass density: Vibrating tube method

CCCCCC [hexane]
Details | refractive index
[1], 298.15 K | 1.372

Details | mass density [kg/m3]
[2], 313.15 K, 101.33 kPa | 641.2

CCCCn1cc[n+](C)c1.F[B-](F)(F)F [1-butyl-3-methylimidazolium tetrafluoroborate] + CN1CCCC1=O
[3]
Details | mass density [kg/m3] | speed of sound [m/s] | viscosity [mPa·s]
293.15 K | 1206 | 1576.7 | 129.34
298.15 K | 1202.4 | 1564.7 | 98.95
303.15 K | 1198.8 | 1552.8 | 77
308.15 K | 1195.2 | 1541.2 | 60.9
313.15 K | 1191.7 | 1529.6 | 49.2
318.15 K | 1188.1 | 1518.2 | 40.27
323.15 K | 1184.6 | 1506.9 | 33.44
328.15 K | 1181.1 | 1495.7 | 28.12
333.15 K | 1177.6 | 1484.5 | 23.94
338.15 K | 1174.2 | 1473.2 | 20.62
343.15 K | 1170.7 | 1461.7 | 17.92

CN1CCCC1=O [N-methylpyrrolidone]
Details | refractive index
[1], 298.15 K | 1.469

[2], 101 kPa
Details | mass density [kg/m3] | speed of sound [m/s] | viscosity [mPa·s]
293.15 K | 1034.1 | 1565.7 | 1.786
298.15 K | 1029.7 | 1546.1 | 1.693
303.15 K | 1025.2 | 1526.7 | 1.564
308.15 K | 1020.8 | 1507.5 | 1.448
313.15 K | 1016.3 | 1488.3 | 1.346
318.15 K | 1011.9 | 1469.2 | 1.258
323.15 K | 1007.4 | 1450.4 | 1.176
328.15 K | 1002.9 | 1431.4 | 1.103
333.15 K | 998.4 | 1412.8 | 1.037
338.15 K | 993.9 | 1394.4 | 0.9769
343.15 K | 989.4 | 1376 | 0.923

CCCCn1cc[n+](C)c1.F[B-](F)(F)F [1-butyl-3-methylimidazolium tetrafluoroborate]
Details | refractive index
[1], 293.15 K | 1.423

[2]
Details | mass density, 101 kPa [kg/m3] | mass density, 101.33 kPa [kg/m3] | speed of sound, 101 kPa [m/s] | viscosity, 101 kPa [mPa·s]
293.15 K | 1206 | – | 1576.7 | 129.34
298.15 K | 1202.4 | – | 1564.7 | 98.95
303.15 K | 1198.8 | – | 1552.8 | 77
308.15 K | 1195.2 | – | 1541.2 | 60.9
313.15 K | 1191.7 | – | 1529.6 | 49.2
318.15 K | 1188.1 | 1188.2 | 1518.2 | 40.27
323.15 K | 1184.6 | – | 1506.9 | 33.44
328.15 K | 1181.1 | – | 1495.7 | 28.12
333.15 K | 1177.6 | – | 1484.5 | 23.94
338.15 K | 1174.2 | – | 1473.2 | 20.62
343.15 K | 1170.7 | – | 1461.7 | 17.92
